The record followed here is ChEMBL document CHEMBL5291721, “A preclinical secondary pharmacology resource illuminates target-adverse drug reaction associations of marketed drugs” (Nat Commun, 2023).

The target in one test is Prothrombin (Homo sapiens, UniProt P00734). Format: functional.
For the next test, the target named is T1, Adenosine receptor A3 (Homo sapiens, UniProt P0DMS8).
T1 sequence (P0DMS8 whole entry): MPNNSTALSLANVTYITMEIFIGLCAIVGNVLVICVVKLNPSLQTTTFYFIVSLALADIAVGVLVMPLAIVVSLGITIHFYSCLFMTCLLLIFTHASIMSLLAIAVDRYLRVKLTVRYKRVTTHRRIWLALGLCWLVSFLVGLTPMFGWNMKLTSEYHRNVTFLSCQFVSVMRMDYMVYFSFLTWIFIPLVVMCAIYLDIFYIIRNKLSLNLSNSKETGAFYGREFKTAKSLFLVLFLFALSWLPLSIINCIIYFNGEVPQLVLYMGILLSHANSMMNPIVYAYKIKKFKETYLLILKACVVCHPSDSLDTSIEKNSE

A further test addresses T2, Estrogen receptor (Homo sapiens, UniProt P03372).
T2 sequence (P03372 whole entry): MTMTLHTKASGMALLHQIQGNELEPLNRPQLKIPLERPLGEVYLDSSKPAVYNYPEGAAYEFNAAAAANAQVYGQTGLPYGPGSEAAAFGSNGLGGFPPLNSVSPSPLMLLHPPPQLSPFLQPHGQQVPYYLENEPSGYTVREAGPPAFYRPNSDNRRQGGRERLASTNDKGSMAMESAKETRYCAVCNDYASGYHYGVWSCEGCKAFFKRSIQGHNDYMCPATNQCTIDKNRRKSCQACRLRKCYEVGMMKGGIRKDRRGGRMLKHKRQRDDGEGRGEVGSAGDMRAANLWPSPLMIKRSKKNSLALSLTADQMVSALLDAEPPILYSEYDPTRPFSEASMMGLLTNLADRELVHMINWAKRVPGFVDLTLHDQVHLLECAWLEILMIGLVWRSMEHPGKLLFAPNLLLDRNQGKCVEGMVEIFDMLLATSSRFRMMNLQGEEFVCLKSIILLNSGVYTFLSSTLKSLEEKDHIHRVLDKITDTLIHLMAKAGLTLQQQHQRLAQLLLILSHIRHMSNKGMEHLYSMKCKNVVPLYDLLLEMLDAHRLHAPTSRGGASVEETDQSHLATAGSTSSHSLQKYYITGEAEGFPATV

Test [1] deals with Sodium-dependent noradrenaline transporter (Homo sapiens, UniProt P23975).
Sequence of Sodium-dependent noradrenaline transporter (P23975 whole entry): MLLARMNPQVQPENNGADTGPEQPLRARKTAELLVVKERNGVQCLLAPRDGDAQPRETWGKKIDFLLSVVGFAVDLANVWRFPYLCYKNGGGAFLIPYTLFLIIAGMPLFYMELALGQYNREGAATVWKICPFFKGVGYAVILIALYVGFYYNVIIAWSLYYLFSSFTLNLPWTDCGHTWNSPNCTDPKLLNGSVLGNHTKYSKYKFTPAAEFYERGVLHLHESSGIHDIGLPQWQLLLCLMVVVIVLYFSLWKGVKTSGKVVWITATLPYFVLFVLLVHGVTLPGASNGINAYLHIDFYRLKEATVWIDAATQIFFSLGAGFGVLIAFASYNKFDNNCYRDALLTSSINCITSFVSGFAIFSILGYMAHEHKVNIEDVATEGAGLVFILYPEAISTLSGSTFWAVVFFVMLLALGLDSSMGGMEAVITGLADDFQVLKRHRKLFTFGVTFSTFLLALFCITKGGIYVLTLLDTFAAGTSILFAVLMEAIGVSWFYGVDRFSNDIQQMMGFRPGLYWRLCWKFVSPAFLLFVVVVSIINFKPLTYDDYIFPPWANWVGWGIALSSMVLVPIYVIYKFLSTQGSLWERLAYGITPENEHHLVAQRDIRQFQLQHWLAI
Test [2] addresses T3, Thromboxane A2 receptor (Homo sapiens, UniProt P21731).
T3 sequence (P21731 whole entry): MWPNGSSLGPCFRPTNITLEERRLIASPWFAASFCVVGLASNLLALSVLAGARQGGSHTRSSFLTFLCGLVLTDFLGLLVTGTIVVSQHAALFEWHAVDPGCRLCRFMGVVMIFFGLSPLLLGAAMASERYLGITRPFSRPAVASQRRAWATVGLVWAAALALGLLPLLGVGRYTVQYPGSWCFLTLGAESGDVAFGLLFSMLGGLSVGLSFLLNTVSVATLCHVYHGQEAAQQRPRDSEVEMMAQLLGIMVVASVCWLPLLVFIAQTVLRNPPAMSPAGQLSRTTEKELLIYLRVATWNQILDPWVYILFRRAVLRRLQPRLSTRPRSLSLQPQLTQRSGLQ
Format: functional, cell-based.

In test [3] the target is T4, Gastrin/cholecystokinin type B receptor (Homo sapiens, UniProt P32239).
T4 sequence (P32239 whole entry): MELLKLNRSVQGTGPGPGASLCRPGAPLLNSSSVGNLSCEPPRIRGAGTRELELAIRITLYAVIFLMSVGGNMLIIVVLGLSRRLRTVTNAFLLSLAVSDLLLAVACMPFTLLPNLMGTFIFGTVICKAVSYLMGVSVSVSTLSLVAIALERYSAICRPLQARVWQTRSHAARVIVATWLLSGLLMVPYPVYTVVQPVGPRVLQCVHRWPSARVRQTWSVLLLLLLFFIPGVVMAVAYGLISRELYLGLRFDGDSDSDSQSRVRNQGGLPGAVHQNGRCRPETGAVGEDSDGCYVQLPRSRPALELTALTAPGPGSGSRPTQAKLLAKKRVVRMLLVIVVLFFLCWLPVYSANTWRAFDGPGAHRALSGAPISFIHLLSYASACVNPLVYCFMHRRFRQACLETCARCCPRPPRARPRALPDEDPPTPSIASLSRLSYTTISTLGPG

The target in test [4] is T3, Thromboxane A2 receptor.
Test [5] deals with 5-hydroxytryptamine receptor 2B (Homo sapiens, UniProt P41595). Format: functional, cell-based.
Sequence of 5-hydroxytryptamine receptor 2B (P41595 whole entry): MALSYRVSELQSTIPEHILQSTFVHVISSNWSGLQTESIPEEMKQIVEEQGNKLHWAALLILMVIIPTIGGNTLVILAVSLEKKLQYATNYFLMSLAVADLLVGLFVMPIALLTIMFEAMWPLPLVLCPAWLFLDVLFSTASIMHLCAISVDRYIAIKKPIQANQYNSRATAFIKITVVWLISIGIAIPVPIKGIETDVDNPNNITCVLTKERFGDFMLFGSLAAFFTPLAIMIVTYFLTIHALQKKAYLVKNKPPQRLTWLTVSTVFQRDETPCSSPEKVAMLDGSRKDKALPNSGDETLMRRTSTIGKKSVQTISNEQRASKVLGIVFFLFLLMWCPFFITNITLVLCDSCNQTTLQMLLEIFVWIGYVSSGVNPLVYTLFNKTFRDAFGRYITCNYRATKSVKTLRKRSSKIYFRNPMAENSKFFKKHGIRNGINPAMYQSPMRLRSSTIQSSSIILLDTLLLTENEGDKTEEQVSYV
The target in a further test is Cannabinoid receptor 1 (Homo sapiens, UniProt P21554). Format: functional, cell-based.
Sequence of Cannabinoid receptor 1 (P21554 whole entry): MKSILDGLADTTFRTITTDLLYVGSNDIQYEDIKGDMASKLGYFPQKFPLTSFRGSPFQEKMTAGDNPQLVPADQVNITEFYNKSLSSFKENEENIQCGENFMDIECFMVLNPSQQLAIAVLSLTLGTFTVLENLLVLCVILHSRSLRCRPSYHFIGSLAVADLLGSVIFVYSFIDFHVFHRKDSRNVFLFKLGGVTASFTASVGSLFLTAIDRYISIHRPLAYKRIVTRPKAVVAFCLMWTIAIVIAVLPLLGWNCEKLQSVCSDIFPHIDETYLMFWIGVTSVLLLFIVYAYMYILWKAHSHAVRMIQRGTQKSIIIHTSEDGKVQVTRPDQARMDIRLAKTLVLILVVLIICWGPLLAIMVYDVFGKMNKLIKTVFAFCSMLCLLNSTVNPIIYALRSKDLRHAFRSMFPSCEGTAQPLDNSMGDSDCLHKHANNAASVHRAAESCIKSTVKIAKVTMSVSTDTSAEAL
Also: assay procedure not described here.

What is called AC50 is the midpoint of the concentration-response curve, whichever way the signal moves. With `O=C(O)c1cc(O)ccc1O` [GENTISIC ACID], the AC50 (on Prothrombin; on Adenosine receptor A3; at Estrogen receptor; in [1]; at Thromboxane A2 receptor [2]) was greater than 30 µM throughout.
Regarding `CN(C)CC(c1ccc(O)cc1)C1(O)CCCCC1` (stereo unspecified) [DESVENLAFAXINE], the half-maximal activity concentration (AC50) at Prothrombin, on Adenosine receptor A3, on Estrogen receptor and on Thromboxane A2 receptor [2] was greater than 30 µM each time.
In the case of `OCCN1C[C@H](O)[C@@H](O)[C@H](O)[C@H]1CO` [MIGLITOL], the AC50 (on Prothrombin; on Adenosine receptor A3; at Estrogen receptor; in test [1]; at Thromboxane A2 receptor [2]) was greater than 30 µM in each case.
Take `C[N+]1(C)CCC(OC(=O)C(O)(c2ccccc2)C2CCCC2)C1` (stereo unspecified) [GLYCOPYRRONIUM BROMIDE]: the AC50 (on Prothrombin; on Estrogen receptor; in test [3]; on Thromboxane A2 receptor [2]; at Thromboxane A2 receptor [4]) was greater than 30 µM each time.
Regarding `CCC(=O)NCC[C@@H]1CCc2ccc3c(c21)CCO3` [RAMELTEON], the AC50 (at Prothrombin; at Adenosine receptor A3; on Estrogen receptor; in test [1]; at Thromboxane A2 receptor [2]) was greater than 30 µM in each case.
`C[N+](C)(C)CCO` [CHOLINE]: the AC50 (on Prothrombin; on Adenosine receptor A3; on Estrogen receptor; in [1]; on Thromboxane A2 receptor [2]) was greater than 30 µM throughout.
Regarding `CCCCCCOc1nsnc1C1=CCCN(C)C1` [XANOMELINE], the concentration at half-maximal activity (AC50) on Prothrombin was greater than 30 µM; at Adenosine receptor A3 it was greater than 30 µM; on Estrogen receptor, greater than 30 µM; in test [1], 2.74 µM; at Thromboxane A2 receptor [2] it was greater than 30 µM.
Take `CN(C)CCN1C(=O)c2ccccc2N(C)c2ccccc21` [DIBENZEPIN]: the half-maximal activity concentration (AC50) is greater than 30 µM at Prothrombin; greater than 30 µM at Adenosine receptor A3; greater than 30 µM on Estrogen receptor; 0.212 µM in [1]; greater than 30 µM at Thromboxane A2 receptor [2].
Take `O=C(CCNNC(=O)c1ccncc1)NCc1ccccc1` [NIALAMIDE]: the concentration at half-maximal activity (AC50) (at Prothrombin; on Adenosine receptor A3; at Estrogen receptor; in test [1]; at Thromboxane A2 receptor [2]) was greater than 30 µM each time.
Regarding `CC[N+]1(C)[C@@H]2CC(OC(=O)[C@H](CO)c3ccccc3)C[C@H]1[C@@H]1O[C@@H]12` (stereo partly specified) [OXITROPIUM], the half-maximal activity concentration (AC50) (on Prothrombin; at Adenosine receptor A3; on Estrogen receptor; in test [1]; on Thromboxane A2 receptor [2]) was greater than 30 µM in each case.
`CC(C)Nc1ncccn1` [ISAXONINE]: the AC50 (at Prothrombin; on Adenosine receptor A3; on Estrogen receptor; in [1]; on Thromboxane A2 receptor [2]) was greater than 30 µM in each case.
In the case of `CC(=O)N[C@@H]1[C@@H](O)[C@H](O)[C@@H](CO)O[C@H]1O` [N-ACETYLGLUCOSAMINE], the AC50 (at Prothrombin; at Adenosine receptor A3; at Estrogen receptor; in test [1]; at Thromboxane A2 receptor [2]) was greater than 30 µM each time.
`O=C(Cc1ccc(-c2ccccc2)cc1)Nc1ccccn1` [DIFENPIRAMIDE]: the half-maximal activity concentration (AC50) at Prothrombin was greater than 30 µM; in test [5], greater than 30 µM; on Estrogen receptor, greater than 30 µM; in [1], 2.16 µM; on Thromboxane A2 receptor [2], greater than 30 µM; on Cannabinoid receptor 1, greater than 30 µM.
With `COCc1c(C(C)C)nc(C(C)C)c(/C=C/[C@@H](O)C[C@@H](O)CC(=O)O)c1-c1ccc(F)cc1` [CERIVASTATIN], the concentration at half-maximal activity (AC50) on Prothrombin is greater than 30 µM; on Adenosine receptor A3 it was greater than 30 µM; at Estrogen receptor it was 23.3 µM; in test [1], greater than 30 µM; at Thromboxane A2 receptor [2], 20.1 µM.
As to `COc1cc(NC(C)CCCN)c2ncccc2c1` (stereo unspecified) [PRIMAQUINE], the AC50 at Prothrombin was greater than 30 µM; on Adenosine receptor A3, 14.7 µM; on Estrogen receptor, greater than 30 µM; in test [3], greater than 30 µM; at Thromboxane A2 receptor [2], greater than 30 µM; on Thromboxane A2 receptor [4], greater than 30 µM.
`CN(C)S(=O)(=O)c1ccc2c(c1)N(CCCN1CCC(CCO)CC1)c1ccccc1S2` [PIPOTIAZINE]: the AC50 was greater than 30 µM on Prothrombin; greater than 30 µM at Adenosine receptor A3; greater than 30 µM on Estrogen receptor; 12 µM in test [1]; 15.7 µM at Thromboxane A2 receptor [2].
`Oc1c(Cl)cc(Cl)c2cccnc12` [CHLOROXINE]: the AC50 at Prothrombin was greater than 30 µM; at Adenosine receptor A3 it was greater than 30 µM; on Estrogen receptor it was greater than 30 µM; in test [1] it was 5.19 µM; on Thromboxane A2 receptor [2] it was greater than 30 µM.
Turning to `N[C@H](C(=O)O)[C@H](O)c1ccc(O)c(O)c1` [DROXIDOPA], the half-maximal activity concentration (AC50) (at Prothrombin; on Adenosine receptor A3; on Estrogen receptor; in test [1]; at Thromboxane A2 receptor [2]) was greater than 30 µM throughout.
As to `C=C[C@H]1C[N@@]2CC[C@H]1C[C@H]2[C@H](O)c1ccnc2ccc(OC)cc12` [QUININE], the half-maximal activity concentration (AC50) (on Prothrombin; at Adenosine receptor A3; at Estrogen receptor; in test [1]; at Thromboxane A2 receptor [2]) was greater than 30 µM in each case.
For the molecule `CC(C)(C)NC[C@H](O)COc1ccccc1C1CCCC1` [PENBUTOLOL], the AC50 on Prothrombin is greater than 30 µM; on Adenosine receptor A3 it was greater than 30 µM; at Estrogen receptor, greater than 30 µM; in test [1], 13.4 µM; at Thromboxane A2 receptor [2] it was 16.1 µM.
As for `CCC1=C(C)CN(C(=O)NCCc2ccc(S(=O)(=O)NC(=O)N[C@H]3CC[C@H](C)CC3)cc2)C1=O` [GLIMEPIRIDE], the concentration at half-maximal activity (AC50) on Prothrombin was greater than 30 µM; on Adenosine receptor A3, greater than 30 µM; on Estrogen receptor, greater than 30 µM; in test [1], greater than 30 µM; on Thromboxane A2 receptor [2], 18.5 µM.
`N[C@@H](C(=O)N[C@@H]1C(=O)N2C(C(=O)O)=C(Cl)CC[C@H]12)c1ccccc1` [LORACARBEF ANHYDROUS]: the AC50 (on Prothrombin; on Adenosine receptor A3; at Estrogen receptor; in test [1]; at Thromboxane A2 receptor [2]) was greater than 30 µM each time.
Turning to `CN(C)[C@@H](c1cccc(O)c1)[C@H]1CCCC[C@H]1O` [CIRAMADOL], the AC50 (on Prothrombin; on Adenosine receptor A3; at Estrogen receptor; in test [1]; on Thromboxane A2 receptor [2]) was greater than 30 µM each time.
